Source: ChEMBL document CHEMBL3393042, “Synthesis and photophysical characterization of quasi push-pull dicyanodibenzodioxins and their anti-tumor activity against glioma cell line C6” (Bioorg Med Chem Lett, 2015)
The source made the active and inactive calls. The calls are words filed in the database; no cut-off is given here.

The compounds below were run on C6 (assay: Cytotoxicity against rat C6 cells assessed as cell viability at 2 to 50 uM after 24 hrs by MTT assay).
Assay type: functional, cell-based

| SMILES | Activity |
| --- | --- |
| N#Cc1cc2c(cc1C#N)Oc1cc(Br)ccc1O2 | Active |
| N#Cc1cc2c(cc1C#N)Oc1ccccc1O2 | Active |
| N#Cc1cc2c(cc1C#N)Oc1cc([N+](=O)[O-])ccc1O2 | inactive |
